According to US20240300928A1, “GLP-1 RECEPTOR AGONIST, PHARMACEUTICAL COMPOSITION COMPRISING SAME, AND METHOD FOR PREPARING SAME” (LG CHEM, LTD., priority 2021, published 2024):
pEC50: −log10 of the molar value.

These compounds were tested against T1, hGLP-1R (Homo sapiens, UniProt P43220) (assay: GLP-1R agonist activity measurement (cell-based luciferase assay)). Settings: CHO-K1/hGLP-1R/CRE-luciferase cell line, 4 h treatment, Bright-Glo luminescence.
T1 construct: expressed in transfected cells; host or cells: CHO-K1 (hGLP-1R and CRE-luciferase reporter)
T1 sequence (P43220 24-463): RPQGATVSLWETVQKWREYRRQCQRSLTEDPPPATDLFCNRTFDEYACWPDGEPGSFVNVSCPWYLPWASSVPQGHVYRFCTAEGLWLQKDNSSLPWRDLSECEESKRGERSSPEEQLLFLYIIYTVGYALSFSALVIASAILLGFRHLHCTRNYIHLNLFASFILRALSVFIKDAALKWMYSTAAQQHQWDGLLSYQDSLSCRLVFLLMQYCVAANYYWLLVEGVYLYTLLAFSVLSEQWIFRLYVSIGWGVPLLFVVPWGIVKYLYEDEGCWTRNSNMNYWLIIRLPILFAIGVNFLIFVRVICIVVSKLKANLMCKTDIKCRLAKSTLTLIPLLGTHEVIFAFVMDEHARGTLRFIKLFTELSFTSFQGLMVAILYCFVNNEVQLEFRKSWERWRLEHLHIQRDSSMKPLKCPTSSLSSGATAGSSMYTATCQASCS
Description: Experimental Example 1: GLP-1R Agonist Activity Measurement (Cell-Based Luciferase Assay)
The CHO-K1/hGLP-1R/CRE-luciferase cell line was seeded at 15000 cells in a 96-well plate. As a medium, Ham's F-12 Nutrient medium was used. After culturing for 18 hours in a 5% CO2 incubator maintained at 37° C., the drug was treated. Each drug plated at 9 concentrations was dissolved in DMEM/F-12+1% FBS medium and treated with 100 ul of each cell line. After culturing for 4 h, 30 ul of assay reagent was added to each well using the Bright-Glo™ luciferase assay system kit. After the plate was stored at room temperature for 15 min, luminescence was measured with a SpectraMax M5 instrument.

pEC50 | Compound
9.50 | O=C(O)c1ccc2nc(Cc3ccc(-c4cccnc4OCc4ccc(Cl)cc4F)cc3)n(C[C@@H]3CCO3)c2c1 [Example 1, (S)-2-(4-(2-((4-chloro-2-fluorobenzyl)oxy)pyridin-3-yl)benzyl)-1-(oxetan-2-ylmethyl)-1H-benzo[d]imidazol-6-carboxylic acid]
9.97 | CC1(c2ccc(Cl)cc2F)Oc2cccc(-c3ccc(Cc4nc5ccc(C(=O)O)cc5n4C[C@@H]4CCO4)cc3)c2O1 (stereo partly drawn) [Example 2, 2-(4-(2-(4-chloro-2-fluorophenyl)-2-methylbenzo[d][1,3]dioxol-4-yl)benzyl)-1-(((S)-oxetan-2-yl)methyl)-1H-benzo[d]imidazol-6-carboxylic acid]
9.56 | CC1(c2ccc(Cl)cc2F)Oc2cccc(-c3ccc(Cc4nc5ccc(C(=O)O)cc5n4Cc4cnco4)cc3)c2O1 (stereo not shown) [Example 4, 2-(4-(2-(4-chloro-2-fluorophenyl)-2-methylbenzo[d][1,3]dioxol-4-yl)benzyl)-1-(oxazol-5-ylmethyl)-1H-benzo[d]imidazol-6-carboxylic acid]
9.80 | CC1(c2ccc(Cl)cc2F)Oc2cccc(-c3ccc(Cc4nc5ccc(C(=O)O)cc5n4Cc4cnco4)cc3F)c2O1 (stereo not shown) [Example 5, 2-(4-(2-(4-chloro-2-fluorophenyl)-2-methylbenzo[d][1,3]dioxol-4-yl)-3-fluorobenzyl)-1-(oxazol-5-ylmethyl)-1H-benzo[d]imidazol-6-carboxylic acid]
8.46 | O=C(O)c1ccc2nc(Cc3ccc(-c4cccnc4OCc4ccc(Cl)cc4F)cc3)n(Cc3cnco3)c2c1 [Example 6, 2-(4-(2-((4-chloro-2-fluorobenzyl)oxy)pyridin-3-yl)benzyl)-1-(oxazol-5-ylmethyl)-1H-benzo[d]imidazol-6-carboxylic acid]
< 7.10 | CCCn1cnnc1Cn1c(Cc2ccc(-c3cccnc3OCc3ccc(Cl)cc3F)cc2)nc2ccc(C(=O)O)cc21 [Example 7, 2-(4-(2-((4-chloro-2-fluorobenzyl)oxy)pyridin-3-yl)benzyl)-1-((4-propyl-4H-1,2,4-triazol-3-yl)methyl)-1H-benzo[d]imidazol-6-carboxylic acid]
9.04 | CCCn1cnnc1Cn1c(Cc2ccc(-c3cccc4c3OC(C)(c3ccc(Cl)cc3F)O4)cc2)nc2ccc(C(=O)O)cc21 (stereo not shown) [Example 8, 2-(4-(2-(4-chloro-2-fluorophenyl)-2-methylbenzo[d][1,3]dioxol-4-yl)benzyl)-1-((4-propyl-4H-1,2,4-triazol-3-yl)methyl)-1H-benzo[d]imidazol-6-carboxylic acid]
9.11 | CCCn1cnnc1Cn1c(Cc2ccc(-c3cccc4c3OC(C)(c3ccc(Cl)cc3F)O4)c(F)c2)nc2ccc(C(=O)O)cc21 (stereo not shown) [Example 9, 2-(4-(2-(4-chloro-2-fluorophenyl)-2-methylbenzo[d][1,3]dioxol-4-yl)-3-fluorobenzyl)-1-((4-propyl-4H-1,2,4-triazol-3-yl)methyl)-1H-benzo[d]imidazol-6-carboxylic acid]
10.67 | CCn1cncc1Cn1c(Cc2ccc(-c3cccc4c3OC(C)(c3ccc(Cl)cc3F)O4)cc2)nc2ccc(C(=O)O)cc21 (stereo not shown) [Example 10, 2-(4-(2-(4-chloro-2-fluorophenyl)-2-methylbenzo[d][1,3]dioxol-4-yl)benzyl)-1-((1-ethyl-1H-imidazol-5-yl)methyl)-1H-benzo[d]imidazol-6-carboxylic acid]
10.59 | CCn1cncc1Cn1c(Cc2ccc(-c3cccc4c3OC(C)(c3ccc(Cl)cc3F)O4)c(F)c2)nc2ccc(C(=O)O)cc21 (stereo not shown) [Example 11, 2-(4-(2-(4-chloro-2-fluorophenyl)-2-methylbenzo[d][1,3]dioxol-4-yl)-3-fluorobenzyl)-1-((1-ethyl-1H-imidazol-5-yl)methyl)-1H-benzo[d]imidazol-6-carboxylic acid]
9.65 | CC1(c2ccc(Cl)cc2F)Oc2cccc(-c3ccc(Cc4nc5ccc(C(=O)O)cc5n4C[C@@H]4CCCO4)cc3)c2O1 (stereo partly drawn) [Example 12, 2-(4-(2-(4-chloro-2-fluorophenyl)-2-methylbenzo[d][1,3]dioxol-4-yl)benzyl)-1-(((S)-tetrahydrofuran-2-yl)methyl)-1H-benzo[d]imidazol-6-carboxylic acid]
< 7.10 | O=C(O)c1ccc2nc(Cc3ccc(-c4cccc(OCC56CCC(CC5)CC6)n4)cc3)n(C[C@@H]3CCO3)c2c1 [Example 13, (S)-2-(4-(6-(bicyclo[2.2.2]octan-1-ylmethoxy)pyridin-2-yl)benzyl)-1-(oxetan-2-ylmethyl)-1H-benzo[d]imidazol-6-carboxylic acid]

Compound | pEC50
CC1(c2ccc(Cl)cc2F)Oc2cccc(-c3ccc(Cc4nc5ccc(C(=O)O)cc5n4C[C@@H]4CCO4)cc3F)c2O1 (stereo partly drawn) [Example 3, 2-(4-(2-(4-chloro-2-fluorophenyl)-2-methylbenzo[d][1,3]dioxol-4-yl)-3-fluorobenzyl)-1-(((S)-oxetan-2-yl)methyl)-1H-benzo[d]imidazol-6-carboxylic acid] | 10.39
